Legend:
Assay in all cases: relative viability (nuclei count vs DMSO), 5 days (fraction); higher = more cells survive
NCI-H1650 = system: NCI-H1650
Method in brief: (§1)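 One day after seeding in 1536-well plates, lung cancer cell lines were dosed by pin tool. Dosing was either single-drug or a fixed anchor-drug dose plus five library-drug doses (not always all listed) in √10 steps. After 5 days, nuclei were stained in one fix-and-stain step and counted on 4× images, and relative viability is the nuclei count of treated wells over that of vehicle wells, given as the median of duplicate plates.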

NCI-H441 = system: NCI-H441
Method in brief: as §1

NCI-H1355 = system: NCI-H1355
Method in brief: as §1

NCI-H460 = system: NCI-H460
Method in brief: as §1

EKVX = system: EKVX
Method in brief: as §1

NCI-H1395 = system: NCI-H1395
Method in brief: as §1

NCI-H1437 = system: NCI-H1437
Method in brief: as §1

NCI-H1563 = system: NCI-H1563
Method in brief: as §1

NCI-H838 = system: NCI-H838
Method in brief: as §1

NCI-H1755 = system: NCI-H1755
Method in brief: as §1

NCI-H2085 = system: NCI-H2085
Method in brief: as §1

NCI-H1975 = system: NCI-H1975
Method in brief: as §1

LOU-NH91 = system: LOU-NH91
Method in brief: as §1

CAL-12T = system: CAL-12T
Method in brief: as §1

NCI-H2342 = system: NCI-H2342
Method in brief: as §1

NCI-H2023 = system: NCI-H2023
Method in brief: as §1

BEN = system: BEN
Method in brief: as §1

NCI-H358 = system: NCI-H358
Method in brief: as §1

NCI-H1734 = system: NCI-H1734
Method in brief: as §1

LU99A = system: LU99A
Method in brief: as §1

NCI-H1651 = system: NCI-H1651
Method in brief: as §1

HCC-366 = system: HCC-366
Method in brief: as §1

O=C(O)c1ccc(-c2c[nH]c3ncc(-c4ccccc4)cc23)cc1C1CCCC1 + Cc1nc(Nc2ncc(C(=O)Nc3c(C)cccc3Cl)s2)cc(N2CCN(CCO)CC2)n1 [Dasatinib] (partner 0.075 µM)
relative viability (NCI-H1650; first compound 0.04 µM): 0.312 | relative viability (NCI-H1650; first compound 0.1265 µM): 0.357 | relative viability (NCI-H1650; first compound 0.4 µM): 0.37 | relative viability (NCI-H1650; first compound 1.265 µM): 0.308 | relative viability (NCI-H441; first compound 0.04 µM): 0.737 | relative viability (NCI-H441; first compound 0.1265 µM): 0.521 | relative viability (NCI-H441; first compound 0.4 µM): 0.575 | relative viability (NCI-H441; first compound 1.265 µM): 0.473 | relative viability (NCI-H1355; first compound 0.04 µM): 0.754 | relative viability (NCI-H1355; first compound 0.1265 µM): 0.841 | relative viability (NCI-H1355; first compound 0.4 µM): 0.664 | relative viability (NCI-H1355; first compound 1.265 µM): 0.567 | relative viability (NCI-H460; first compound 0.04 µM): 0.566 | relative viability (NCI-H460; first compound 0.1265 µM): 0.676 | relative viability (NCI-H460; first compound 0.4 µM): 0.472 | relative viability (NCI-H460; first compound 1.265 µM): 0.428 | relative viability (EKVX; first compound 0.04 µM): 0.547 | relative viability (EKVX; first compound 0.1265 µM): 0.512 | relative viability (EKVX; first compound 0.4 µM): 0.564 | relative viability (EKVX; first compound 1.265 µM): 0.675 | relative viability (NCI-H1395; first compound 0.04 µM): 0.392 | relative viability (NCI-H1395; first compound 0.1265 µM): 0.396 | relative viability (NCI-H1395; first compound 0.4 µM): 0.365 | relative viability (NCI-H1395; first compound 1.265 µM): 0.426 | relative viability (NCI-H1437; first compound 0.04 µM): 0.385 | relative viability (NCI-H1437; first compound 0.1265 µM): 0.386 | relative viability (NCI-H1437; first compound 0.4 µM): 0.374 | relative viability (NCI-H1437; first compound 1.265 µM): 0.378 | relative viability (NCI-H1563; first compound 0.04 µM): 0.455 | relative viability (NCI-H1563; first compound 0.1265 µM): 0.514 | relative viability (NCI-H1563; first compound 0.4 µM): 0.48 | relative viability (NCI-H1563; first compound 1.265 µM): 0.48 | relative viability (NCI-H838; first compound 0.04 µM): 0.273 | relative viability (NCI-H838; first compound 0.1265 µM): 0.299 | relative viability (NCI-H838; first compound 0.4 µM): 0.31 | relative viability (NCI-H838; first compound 1.265 µM): 0.293 | relative viability (NCI-H1755; first compound 0.04 µM): 0.394 | relative viability (NCI-H1755; first compound 0.1265 µM): 0.541 | relative viability (NCI-H1755; first compound 0.4 µM): 0.423 | relative viability (NCI-H1755; first compound 1.265 µM): 0.436 | relative viability (NCI-H2085; first compound 0.04 µM): 0.259 | relative viability (NCI-H2085; first compound 0.1265 µM): 0.268 | relative viability (NCI-H2085; first compound 0.4 µM): 0.307 | relative viability (NCI-H2085; first compound 1.265 µM): 0.247 | relative viability (NCI-H1975; first compound 0.04 µM): 0.446 | relative viability (NCI-H1975; first compound 0.1265 µM): 0.356 | relative viability (NCI-H1975; first compound 0.4 µM): 0.408 | relative viability (NCI-H1975; first compound 1.265 µM): 0.376 | relative viability (LOU-NH91; first compound 0.04 µM): 0.573 | relative viability (LOU-NH91; first compound 0.1265 µM): 0.667 | relative viability (LOU-NH91; first compound 0.4 µM): 0.508 | relative viability (LOU-NH91; first compound 1.265 µM): 0.577 | relative viability (CAL-12T; first compound 0.04 µM): 0.484 | relative viability (CAL-12T; first compound 0.1265 µM): 0.602 | relative viability (CAL-12T; first compound 0.4 µM): 0.481 | relative viability (CAL-12T; first compound 1.265 µM): 0.323 | relative viability (NCI-H2342; first compound 0.04 µM): 0.34 | relative viability (NCI-H2342; first compound 0.1265 µM): 0.377 | relative viability (NCI-H2342; first compound 0.4 µM): 0.325 | relative viability (NCI-H2342; first compound 1.265 µM): 0.289 | relative viability (NCI-H2023; first compound 0.04 µM): 0.575 | relative viability (NCI-H2023; first compound 0.1265 µM): 0.738 | relative viability (NCI-H2023; first compound 0.4 µM): 0.603 | relative viability (NCI-H2023; first compound 1.265 µM): 0.515 | relative viability (BEN; first compound 0.04 µM): 0.291 | relative viability (BEN; first compound 0.1265 µM): 0.374 | relative viability (BEN; first compound 0.4 µM): 0.358 | relative viability (BEN; first compound 1.265 µM): 0.291 | relative viability (NCI-H358; first compound 0.04 µM): 0.143 | relative viability (NCI-H358; first compound 0.1265 µM): 0.209 | relative viability (NCI-H358; first compound 0.4 µM): 0.209 | relative viability (NCI-H358; first compound 1.265 µM): 0.152 | relative viability (NCI-H1734; first compound 0.04 µM): 0.502 | relative viability (NCI-H1734; first compound 0.1265 µM): 0.437 | relative viability (NCI-H1734; first compound 0.4 µM): 0.468 | relative viability (NCI-H1734; first compound 1.265 µM): 0.409 | relative viability (LU99A; first compound 0.04 µM): 0.599 | relative viability (LU99A; first compound 0.1265 µM): 0.748 | relative viability (LU99A; first compound 0.4 µM): 0.626 | relative viability (LU99A; first compound 1.265 µM): 0.448 | relative viability (NCI-H1651; first compound 0.04 µM): 0.333 | relative viability (NCI-H1651; first compound 0.1265 µM): 0.5 | relative viability (NCI-H1651; first compound 0.4 µM): 0.384 | relative viability (NCI-H1651; first compound 1.265 µM): 0.3 | relative viability (HCC-366; first compound 0.04 µM): 0.583 | relative viability (HCC-366; first compound 0.1265 µM): 0.786 | relative viability (HCC-366; first compound 0.4 µM): 0.689 | relative viability (HCC-366; first compound 1.265 µM): 0.669

Reference: the supplement of paper PMC10307832
